Measured values reported in patent publication US20160052898A1, “NOVEL COMPOUNDS” (BAYER PHARMA AKTIENGESELLSCHAFT, priority 2013, published 2016).
Where two headings read alike, the source gives them in different places.

How the values were obtained:
[1] = tested on: HCT116 FOP control reporter cell line; experiment: HCT116 FOP control vector reporter assay (non-functional TCF elements); format: cell-based; settings: HCT116 FOP control reporter cells, luciferase expression, 36 hours incubation, 50 μM to 15 nM, read-out: HCT116 FOPFlash IC50
Method: (§1) In a parallel approach, HCT116 cells were cotransfected with the FOP control vector and pcDNA3. The FOP vector is identical to the TOP construct, but it contains instead of functional TCF elements a randomized, non-functional sequence. For this transfection a stable transfected cell line was generated as well.
(§2) In preparation of the assay, the two cell lines were plated 24 hrs before at 10000 cells per well of a 384 micro titre plate (MTP) in 30 μL growth medium. Selective inhibitory activity for small molecules on the mutated Wnt pathway was determined after parallel incubation of both (TOP and FOP) HCT116 reporter cell lines with a compound dilution series from 50 μM to 15 nM in steps of 3.16-fold dilutions in CAFTY buffer (130 mM NaCl, 5 mM KCl, 20 mM HEPES, 1 mM MgCl2, 5 mM NaHCO3, pH 7.4) containing 2 mM Ca^2+ and 0.01% BSA. The compounds were thereby serially prediluted in 100% DMSO and thereafter in addition 50 fold into the CAFTY compound dilution buffer (described above). From this dilution 10 μL were added to the cells in 30 μL growth medium and incubated for 36 hours at 37° C. and 5% CO2. Thereafter luciferase assay buffer (1:1 mixture of luciferase substrate buffer (20 mM Tricine, 2.67 mM MgSO4, 0.1 mM EDTA, 4 mM DTT, 270 μM Coenzyme A, 470 μM Luciferin, 530 μM ATP, ph adjusted to pH 7.8 with a sufficient volume of 5M NaOH) and Triton buffer (30 mL Triton X-100, 115 mL glycerol, 308 mg Dithiothreitol, 4.45 g Na2HPO4.2 H2O, 3.03 g Tris.HCL, ad 1 l H20, pH 7.8) was added as equal volume to the compound solution on the cells to determine luciferase expression as a measure of Wnt signaling activity in a luminometer.

[2] = tested on: constitutive active colorectal cancer cell (CRC) Wnt pathway; experiment: HCT116 Super TopFlash cellular reporter assay (constitutive active Wnt pathway); format: cell-based; settings: HCT116 TOP reporter cells, luciferase expression, 36 hours incubation, 50 μM to 15 nM
Method: In order to discover and characterize small molecules which inhibit the constitutive active colorectal cancer cell (CRC) Wnt pathway, a cellular reporter assay was employed. The corresponding assay cell was generated by transfection of the colorectal cancer cell line HCT116 (ATCC, #CCL-247) with the Super TopFlash vector (Morin, Science 275, 1997, 1787-1790; Molenaar et al., Cell 86 (3), 1996, 391-399). The HCT116 cell line is cultivated at 37° C. and 5% CO2 in DMEM/F-12 (Life Technologies, #11320-074), supplemented with 2 mM glutamine, 20 mM HEPES, 1.4 mM pyruvate, 0.15% Na-bicarbonate and 10% foetal bovine serum (GIBCO, #10270), this cancer cell line is pathophysiological relevant since it carries a deletion of position S45 in the β-catenin gene, leading to constitutive active Wnt signaling. Stable transfectants were generated by cotransfection with pcDNA3 and selection of stable transfected cells with 1 mg/ml G418.
as §1, §2

Row | Structure (SMILES) | IC50 ([1]; Homo sapiens, HCT-116, 36 h) [µM] | IC50 ([2]; Homo sapiens, HCT-116, 36 h) [µM] | IC50 [1] [µM] | IC50 [2] [µM]
1 | CC(C(=O)Nc1cc(NC(=O)c2ccc(-c3ccccc3)cc2)ccc1C(F)(F)F)N1CC2CCC(C1)O2 (stereo not drawn) [Example 197, N-[3-{[(2S*)-2-(8-oxa-3-azabicydo[3.2.1]oct-3-yl)propanoyl]amino}-4-(trifluoromethyl)phenyl) biphenyl-4-carboxamide] | – | – | ≥ 50 | 1.48
2 | COc1ccc(NC(=O)c2ccc(-c3ccccc3)cc2)cc1NC(=O)Cc1cccc(F)c1 [Example 142, N-(3-{[(3-fluorophenyl)acetyl]amino}-4-methoxyphenyl)biphenyl-4-carboxamide] | ≥ 50 | 2.85 | – | –
3 | Cc1ccc(NC(=O)c2ccc(-c3ccccc3)cc2)cc1NC(=O)CN1CCOCC1 [Example 70, N-{4-methyl-3-[(morpholin-4-ylacetyl)amino]phenyl}biphenyl-4-carboxamide] | ≥ 50 | 1.35 | – | –
4 | COc1ccc(NC(=O)c2ccc(-c3ccccc3)cc2)cc1NC(=O)CN1C[C@@H](C)O[C@@H](C)C1 [Example 212, N-[3-({[(2R,6S)-2,6-dimethylmorpholin-4-yl]acetyl}amino)-4-methoxyphenyl]biphenyl-4-carboxamide] | ≥ 50 | 4.35 | – | –
5 | COc1ccc(NC(=O)c2ccc(-c3ccccc3)cc2)cc1NC(=O)CN1CCO[C@@H](CO)C1 [Example 34, N-[3-({[(2R)-2-(hydroxymethyl)morpholin-4-yl]acetyl}amino)-4-methoxyphenyl]biphenyl-4-carboxamide] | ≥ 50 | 1.06 | – | –
6 | O=C(CN1CCOCC1)Nc1cc(NC(=O)c2ccc(-c3ccccc3)cc2)ccc1C(F)(F)F [Example 183, N-{3-[(morpholin-4-ylacetyl)amino]-4-(trifluoromethyl)phenyl} biphenyl-4-carboxamide] | ≥ 50 | 0.344 | – | –
7 | COc1ccc(C(=O)Nc2ccc(-c3ccccc3)cc2)cc1NC(=O)CN1CCC(OC)C1 (centres unmarked) [Example 202, N-(biphenyl-4-yl)-4-methoxy-3-{[(3-methoxypyrrolidin-1-yl)acetyl]amino}benzamide] | ≥ 50 | 1.9 | – | –
8 | COc1ccc(NC(=O)c2ccc(-c3ccc(NC(C)=O)cc3)cc2)cc1NC(=O)CN1CCOCC1 [Example 118, 4′-acetamido-N-{4-methoxy-3-[(morpholin-4-ylacetyl)amino]phenyl}biphenyl-4-carboxamide] | ≥ 50 | 0.96 | – | –
9 | COc1ccc(C(=O)Nc2ccc(-c3ccccc3)cc2)cc1NC(=O)C1(N2CCN(C3CC3)CC2)CC1 [Example 156, N-(biphenyl-4-yl)-3-({[1-(4-cyclopropylpiperazin-1-yl)cyclopropyl)carbonyl}amino)-4-methoxybenzamide] | ≥ 50 | 0.0527 | – | –
10 | COCCCOCc1ccc(C(=O)Nc2ccc(-c3ccccc3)cc2)cc1NC(=O)C(C)N1CCOCC1 (single isomer, unassigned) [Example 179, N-(biphenyl-4-yl)-4-[(3-methoxypropoxy)methyl]-3-{[(2S*)-2-(morpholin-4-yl)propanoyl]amino} benzamide] | – | – | 7.6 | 0.3
11 | COc1ccc(NC(=O)c2ccc(-c3ccccc3)cc2)cc1NC(=O)CN1CCN(S(C)(=O)=O)CC1 [Example 51, N-[4-methoxy-3-({[4-(methylsulfonyl)piperazin-1-yl]acetyl}amino)phenyl]biphenyl-4-carboxamide] | ≥ 50 | 3.18 | – | –
12 | O=C(CN1C[C@H]2C[C@@H]1CO2)Nc1cc(C(=O)Nc2ccc(-c3ccccc3)cc2)ccc1C(F)(F)F [Example 190, N-(biphenyl-4-yl)-3-{[(1R,4R)-2-oxa-5-azabicyclo[2.2.1]hept-5-ylacetyl]amino}-4-(trifluoromethyl)benzamide] | ≥ 50 | 0.568 | – | –
13 | COCc1ccc(C(=O)Nc2ccc(-c3ccccc3)cc2)cc1NC(=O)C1(N(C)C)CC1 [Example 158] | ≥ 50 | 0.063 | – | –
14 | O=C(CN1CCOCC1)Nc1cc(C(=O)Nc2ccc(-c3ccccc3)cc2)ccc1OCC1CC1 [Example 220, N-(biphenyl-4-yl)-4-(cyclopropylmethoxy)-3-[(morpholin-4-ylacetyl)amino)benzamide] | ≥ 50 | 0.16 | – | –
15 | COc1ccc(NC(=O)c2ccc(-c3ccccc3)cc2)cc1NC(=O)C1(N(C)C)CC1 [Example 189, N-[3-({[1-(dimethylamino)cyclopropyl]carbonyl}amino)-4-methoxyphenyl]biphenyl-4-carboxamide] | ≥ 50 | 0.479 | – | –

The next lines start with the values.

Row | IC50 ([1]; Homo sapiens, HCT-116, 36 h) [µM] | IC50 ([2]; Homo sapiens, HCT-116, 36 h) [µM] | IC50 [1] [µM] | IC50 [2] [µM] | Structure (SMILES)
16 | ≥ 50 | 0.43 | – | – | O=C(Cn1cccn1)Nc1cc(C(=O)Nc2ccc(-c3ccccc3)cc2)ccc1C(F)(F)F [Example 3, N-(biphenyl-4-yl)-3-[(1H-pyrazol-1-ylacetyl)amino]-4-(trifluoromethyl)benzamide]
17 | ≥ 50 | 0.074 | – | – | O=C(CN1CC2CCC(C1)O2)Nc1cc(C(=O)Nc2ccc(-c3ccccc3)cc2)ccc1OC1CC1 [Example 128, N-(biphenyl-4-yl)-4-(cyclopropyloxy)-3-[(8-oxa-3-azabicyclo[3.2.1]oct-3-ylacetyl)amino]benzamide]
18 | 42.5 | 0.0476 | – | – | COCc1ccc(C(=O)Nc2ccc(-c3ccccc3)cc2)cc1NC(=O)CN1CC2CCC(C1)O2 [Example 154, N-(biphenyl-4-yl)-4-(methoxymethyl)-3-[(8-oxa-3-azabicyclo[3.2.1]oct-3-ylacetyl)amino]benzamide]
19 | ≥ 50 | 2.03 | – | – | O=C(CN1CCOCC1)Nc1cc(NC(=O)c2ccc(-c3ccccc3)cc2)ccc1O [Example 84, N-{4-hydroxy-3-[(morpholin-4-ylacetyl)amino]phenyl}biphenyl-4-carboxamide]
20 | 9.8 | 0.21 | – | – | CC(C)(C)c1ccc(NC(=O)c2ccc(-c3ccccc3)cc2)cc1NC(=O)CN1CCOCC1 [Example 67, N-{4-tert-butyl-3-[(morpholin-4-ylacetyl)amino]phenyl}biphenyl-4-carboxamide]
21 | ≥ 50 | 0.513 | – | – | O=C(CN1CCOCC1)Nc1cc(NC(=O)c2ccc(-c3ccccc3)cc2)ccc1Br [Example 68, N-{4-bromo-3-[(morpholin-4-ylacetyl)amino]phenyl}biphenyl-4-carboxamide]
22 | 10 | 0.154 | – | – | COCc1ccc(C(=O)Nc2ccc(-c3ccccc3)cc2)cc1NC(=O)C(C)N1CCOCC1 (single isomer, unassigned) [Example 169, N-(biphenyl-4-yl)-4-(methoxymethyl)-3-{[(2R*)-2-(morpholin-4-yl)propanoyl]amino} benzamide]
23 | 28 | 0.248 | – | – | COCCNCC(=O)Nc1cc(NC(=O)c2ccc(-c3ccccc3)cc2)ccc1OC(F)(F)F [Example 130, N-[3-{[N-(2-methoxyethyl)glycyl]amino} -4-(trifluoromethoxy)phenyl] biphenyl-4-carboxamide]
24 | 27 | 0.00998 | – | – | COCc1ccc(C(=O)Nc2ccc(-c3ccccc3)cc2)cc1NC(=O)C(C)N1CC2CCC(C1)O2 (single isomer, unassigned) [Example 146, N-(biphenyl-4-yl)-4-(methoxymethyl)-3-{[(2R*)-2-(8-oxa-3-azabicyclo[3.2.1]oct-3-yl)propanoyl)amino} benzamide]
25 | 28 | 2.2 | – | – | COc1ccc(NC(=O)c2ccc(-c3ccccc3)cc2)cc1N(C)C(=O)CN1CCOCC1 [Example 65, N-{4-methoxy-3-[methyl(morpholin-4-ylacetyl)amino]phenyl}biphenyl-4-carboxamide]
